Reference: patent US20080269163A1, “Methods and Compositions for Protecting Cells from Ultrasound-Mediated Cytolysis” (priority 2004, published 2008)
Entries after “also recorded” stand apart in the source; their conditions may differ.

What was measured:
HL-60 cells [1] = assay: Ultrasound-induced cytolysis of HL-60 cells, Coulter counter analysis; assay type: cell-based; settings: HL-60 cells
Description: Cells: HL-60 myeloid leukemia cells (American Type Culture Collection) were grown in a suspension of RPMI 1640 medium (GIBCO, Gaithersburg, Md.) containing 10% calf serum. The population of HL-60 cells doubled every 23±1 hr (hour ±SEM) when incubated at 37° C. in a CO2 (5%) containing atmosphere. Cells were harvested, re-suspended in fresh RPMI medium and kept at 25° C. until the start of the experiment (typically less than 1 hr). […] The fraction of intact cells before and after ultrasound was determined using a Coulter multisizer (model IIe) connected to a sampling stand (model IIa). The number of intact cells was determined by counting the total number of particles under the bell shaped curve (e.g., FIG. 1a) before and following sonolysis. The cytolysis percentage was determined by subtracting the number of intact cells following sonolysis from the number of intact cells before sonolysis. This value was divided by the number of intact cells before sonolysis and multiplied by 100 to obtain the cytolysis percentage value.
The temperature of the coupling water was 25° C.
We have confirmed the validity of this technique for studying the effects of sonolysis in our ultrasound system by the trypan blue exclusion assay. The mean size of HL-60 cells was determined from the Coulter counter results prior to sonolysis and was approximately 650 μm3 (FIG. 1a) which equates to a mean cell diameter of […].
42 kHz sonolysis was conducted in a similar way but using a Branson ultrasound bath (model number 1510). […] At 42 kHz, a transducer was used to decrease the power of the bath to 50% of its original value. The temperature of the coupling water at all frequencies was 25° C.
The percentage of cytolysis of HL-60 cells was determined by measurement of the cell size distribution using a Coulter multisizer. This method correlates well with percentage cytolysis measured using the Trypan blue exclusion assay immediately following sonolysis and is explained in detail elsewhere (Miyoshi, N. et al. 2003). […] This immediate ultrasound induced cytolysis (i.e., % cytolysis) is represented in FIGS. 2, 10-12 at a concentration of zero.
42 kHz sonolysis was conducted in a similar way but using a Branson ultrasound bath (model number […]). […] At 42 kHz, a transducer was used to decrease the power of the bath to 50% of its original value. The temperature of the coupling water at all frequencies was 25° C.
The percentage of cytolysis of HL-60 cells was determined by measurement of the cell size distribution using a Coulter multisizer. This method correlates well with percentage cytolysis measured using the Trypan blue exclusion assay immediately following sonolysis and is explained in detail elsewhere (Miyoshi, N. et al. 2003). […] This immediate ultrasound induced cytolysis (i.e., % cytolysis) is represented at a concentration of zero.

HL-525 cells [2] = assay: Mechanical fragility of HL-525 cells; assay type: cell-based; settings: OGP 3 mM
Description: Conditions: 50% power, 30 min. shaking, 10 mL borosilicate glass beads, 10 mL cell suspension.

HL-525 cells [3] = assay: Sonolysis of HL-525 cells, % cytolysis; assay type: cell-based; settings: 5 sec
Description: Conditions: 42 kHz, 50% power, 5 sec, 20° C., % cytolysis ±SD (n=6).
Conditions: 354 kHz, 15 W, 5 sec, 20° C., % cytolysis ±SD (n=6).
Conditions: 614 kHz, 20 W, 5 sec, 20° C., % cytolysis ±SD (n=6).
Conditions: 1057 kHz, 10 W, 5 sec, 20° C., % cytolysis ±SD (n=6).

HL-60 cells [4] = assay: Reproduction assay of HL-60 cells following sonolysis; assay type: cell-based; settings: sonolysis, 5 seconds, 10 W; varying concentrations
Description: Cells were allowed to reproduce for 24 hours. Reproduction fraction ±SD (where n=6 to 8) is calculated by dividing the number of cells counted following 24 hours of reproduction by the number of cells counted at the start of incubation.
Control data points were run in triplicate with a standard deviation of less than 10%. Sonolysis points represent an average of six separate cell suspensions, with a standard deviation of less than 10%.
The reproduction ratio is the number of cells present one or two days post treatment divided by the number of cells present on the treatment day.
Reproduction Assay: for FIG. 5, a reproduction assay was conducted over a period of 10 days to determine the long term viability of cells following ultrasound treatment in the presence of either HGP or OGP at concentrations where 100% protection from cytolysis occurred. The long term viability of treated cell suspensions was compared to the long term viability of untreated control cell suspensions held under exactly the same conditions (FIG. 5). Immediately following sonolysis, a 100 μl aliquot of the 1 ml treated (or control) samples was used for Coulter counter analysis in order to confirm that 100% of the cells had survived the ultrasound treatment. Viability of the cells was determined by using a very small volume (approx. 20 μl) of suspension for trypan blue staining. The remaining ≈0.9 ml cell suspensions were diluted to 3 ml with fresh medium, centrifuged, washed with fresh medium, and finally re-suspended in fresh medium (2 ml). 100 μl of this new 2 ml of cells suspended in fresh medium was then used to determine the cell concentration. This cell concentration is defined as ‘the cell concentration at Day 0 after ultrasound treatment’ (Ci). Cell suspensions were then kept at 37° C. in a 5% CO2 incubator for a total of 10 days.
Over the 10 day period, cells had to be spun down occasionally and re-suspended in fresh medium to replenish the nutrients necessary for a healthy cell population. 100 μl aliquots of the original cell suspension were used to measure the cell concentration both before (Cfinal) and following (Cinitial) re-suspension in fresh medium. This procedure, although necessary, results in a slight underestimation in the expected number of cells on any given day, when compared to the original cell concentration, Ci. To account for this small, but significant underestimation, we calculated the actual number of cells that would have been observed had we not been periodically extracting small aliquots for the detection of cell numbers by the Coulter counter. This was done by calculating a ‘reproduction ratio’, determined by dividing Cfinal by Cinitial that was measured one or two days earlier and comparing this ratio to (Ci), to give a ‘real cell population’. It should be noted that this calculation is done simply as a matter of convenience and that the reproduction ability of the treated samples was compared to control samples that were treated in the same way over the day period, as shown in FIG. 5. Verification of this method is given by the fact that the cells of the control samples double approximately every day (FIG. 5), as expected for HL-60 cells under the conditions of incubation in the current study.

HL-60 cells [5] = assay: Exposure of HL-60 cells to glucopyranosides alone (no ultrasound); settings: 15 minute exposure at highest concentrations used
Description: Cell experiments were completed within 5 to 10 minutes of adding the glucopyranosides to the cell suspensions, and each data point represents an average ±SEM, where n=5 to 8. […] For this reason, we only studied the effects of MGP, HGP, HepGP and OGP on the ultrasound induced cytolysis of HL-60 cells.

HL-60 cells [6] = assay: Mechanical fragility test (Burrell wrist action shaker, glass beads), HL-60 cells; assay type: cell-based
Description: 10 ml borosilicate glass beads in a 125 ml conical flask. 10 ml cell suspension in the presence and absence (control) of various glucopyranosides (HGP, HepGP, MGP, and OGP) in a cell culture medium containing 10% DPBS solution. Shaking was conducted over a period of 30 minutes. Each data point represents ±SD, where n=5.
Mechanical Fragility Test: the effect of glucopyranosides on the mechanical fragility of the cells was determined by inducing mechanical shear stress to a cell suspension. This involved placing 10 mL of HL-60 cells in suspension in 125 ml sized screw capped conical flasks containing 10 mL of borosilicate solid-glass beads (Sigma-Aldrich, mean particle diameter of 3 mm), similar to the methods described elsewhere (Carstensen, E. L. et al. 1993; Miller, M. W. et al. 2003). The samples were then shaken in a Burrell wrist action shaker (model number 75, Burrell Scientific, Pittsburgh, Pa.) at 50% power for a duration of 30 minutes. Using this method, up to eight sample solutions could be run at one time. […] In samples containing glucopyranosides, the surfactant was dissolved in 1 ml of DPBS and added to 9 ml of the cell suspension.

various cells = settings: approximately 7 mM to 30 mM OGP for up to 30 minutes; cited from earlier work

Which “effect on ultrasound induced cytolysis (% cytolysis)” value (HL-60 cells [1]; 1.057 MHz (1 MHz), 10 W, 5 s) does the source give for `CCCCCCCCO[C@@H]1O[C@H](CO)[C@@H](O)[C@H](O)[C@H]1O` [OGP, octyl-β-D-Glucopyranoside] here?
Its value is “fully protects”.

And the “concentration giving complete (approximately 100%) protection from ultrasound induced cytolysis” value (HL-60 cells [1]; 1.057 MHz (1 MHz), 10 W, 5 s, air exposed)?
The value was 2 mM.

And the “effect on ultrasound induced cytolysis” value (HL-60 cells [1]; 42 kHz, 50% power, 5 s)?
Its value is “very small sonosensitization; also recorded: weak sonosensitizer”.

And the “effect on ultrasound induced cytolysis” value (HL-60 cells [1]; 354 kHz, 15 W, 5 s)?
Its value is “weak sonosensitizer”.

What about the “cell population protected from cytolysis” value (HL-60 cells [1]; 614 kHz) of the same compound?
Its value is 50%.

And the “change of protection from cytolysis as frequency is decreased” value (HL-60 cells [1]; frequency decreased from 1 MHz to 42 kHz)?
Its value is “less effective; also recorded: most affected by the frequency of sonolysis”.

What about the “effect on mechanical destruction of cells” value (HL-525 cells [2]) of the same compound?
Its value is “significant effect on enhancing mechanical destruction”.

And the “protective effect for HL-525 cells compared to HL-60 cells” value (HL-525 cells [3]; 1 MHz (1057 kHz), 10 W)?
Its value is “different protection effects; also recorded: smaller protective effect”.

What about the “protective effect for HL-525 cells compared to HL-60 cells” value (HL-525 cells [3]; 614 kHz, 20 W) of the same compound?
The value was “much less pronounced; also recorded: smaller protective effect”.

What about the “reproductive viability (reproduction fraction) over 24 hours after sonolysis” value (HL-60 cells [4]) of the same compound?
Its value is “continue to reproduce at the same rate as untreated control samples”.

And the “effect on reproduction rate of the cells over 120 hours” value (HL-60 cells [5])?
The value was “no detrimental effect”.

What about the “protection from mechanical induced cytolysis” value (HL-60 cells [6]; 30 min shaking, 50% power, HGP 1-10 mM, HepGP 0.1-10 mM, MGP 10-30 mM, OGP 0.3-3 mM) of the same compound?
The value was “none of the glucopyranosides tested”.

And the “effect on mechanical destruction of cells” value (HL-60 cells [6]; OGP 3 mM)?
Its value is “no effect”.

And the cytolytic effects (various cells)?
The cytolytic effects was “no cytolytic effects observed”.
